# According to patent US7951806B2, “Plasminogen activator inhibitor-1 inhibitor” (Renascience Co., Ltd., priority 2007, dated 2011):
# Marks after values point to notes of the source that are not given here.
# Tests used:
# PAI-1 [1] = biological target: T1, PAI-1 (Homo sapiens, UniProt P05121); test: Fibrinolytic Action Assay (fibrin plate, PAI-1 + t-PA + test compound); format: biochemical; details: mixture of PAI-1, t-PA and test compound, 18 hours at room temperature
# T1 construct: purchased Molecular Innovations Inc., USA (PAI-1); American Diagnostica, Inc., USA (t-PA)
# T1 sequence (P05121 24-402): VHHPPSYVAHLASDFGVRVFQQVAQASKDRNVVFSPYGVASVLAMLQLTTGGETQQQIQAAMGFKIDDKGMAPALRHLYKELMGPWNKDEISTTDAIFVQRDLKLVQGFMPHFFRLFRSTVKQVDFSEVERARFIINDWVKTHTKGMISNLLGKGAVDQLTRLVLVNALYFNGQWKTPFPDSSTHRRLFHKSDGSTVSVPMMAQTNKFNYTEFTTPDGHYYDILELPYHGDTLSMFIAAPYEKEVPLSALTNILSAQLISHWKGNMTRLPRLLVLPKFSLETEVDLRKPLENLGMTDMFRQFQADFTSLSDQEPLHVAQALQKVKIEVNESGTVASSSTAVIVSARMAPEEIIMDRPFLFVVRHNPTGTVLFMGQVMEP
# Method: The compounds a and b were evaluated for fibrinolytic action in accordance with the method disclosed in the document (Matsuo, O. et al., Haemostasis 16, 43-50 (1986)).
# More specifically, an aqueous solution (25 mM barbital sodium, 50 mM NaCl, and 25 mM CaCl2) containing a concentration of 1.5 mg/ml of fibrinogen (product of Organon Teknica) was added on a 9 cm-plate to thrombin (10NIH U/ml: product of Mochida Pharmaceutical Co., Ltd.) dissolved in a 0.2 ml physiological saline, and the mixture was allowed to stand for 2 hours at room temperature. Using this mixture, fibrinolysis assay was conducted.
# Namely, a mixture of PAI-1, t-PA and a test compound were dropped onto the above-mentioned plate, and incubated for 18 hours at room temperature. Fibrinolysis due to the plasminogen activation was assayed in terms of the lysed area on the plate.
# PAI-1 [2] = biological target: T1, PAI-1; test: PAI-1 Inhibitory Activity Assay (Reference Test Example 1 (1)); format: biochemical; details: 35 μM and 50 μM; FIG. 14
# Method: The compounds a and b (test compounds) were evaluated for inhibitory action on human PAI-1 (product of Molecular Innovations Inc., USA, hereinafter referred to the same). More specifically, human PAI-1 was added to a 0.1% Tween 80-containing 100 mM Tris-HCl (pH 8) solution each containing the above compound respectively in a given concentration (20, 35, 50 and 100 μM), and incubated at 37° C. for 15 minutes. Subsequently, added thereto was human tissue plasminogen activator (t-PA) (product of American Diagnostica, Inc., USA, hereinafter referred to the same), adjusted to […], and further incubated at 37° C. for 15 minutes. Then, 1.25 mM of S-2288 synthesized substrate (product of Chromogenix, Italy, hereinafter referred to as the same), a chromogenic substrate, was added thereto. The final mixed solution contained 100 mM Tris-HCl (pH 8), 30 mM NaCl, 1% DMSO, 0.1% Tween […], 9.8 nM t-PA, 1 mM S-2288 and the test compound a or b (20, 35, 50 or 100 μM).
# Free radical p-nitroanilide removed from the chromogenic substrate (S-2288) by t-PA action was measured using a spectrophotometer at an absorbance of 405 nm, every 5 minutes, for 30 minutes. […]
# [3] = tested on: bleomycin-induced pulmonary fibrosis; test: Effects on bleomycin-induced pulmonary fibrosis (mouse model); format: in vivo
# Method: (§1) A C57BL/6 mouse (male, body weight 19 to 21 g) was intraperitoneally anesthetized with pentobarbital, and an incision was made on the cervical organ. Ten mice were used as controls. The control mice (n=10) were endotracheally administered with bleomycin (product of Nippon Kayaku Co., Ltd.) (1.5 U/kg), lysed in physiological saline, twice a day for 14 days. On the other hand, the test mice were subjected to forcible oral administration with the compound b (200 mg/kg), suspended in a 0.5% carboxymethyl cellulose aqueous solution, twice a day for 14 days, in addition to the above endotracheal administration. Then, the lung tissues taken from these control mice and the test mice were analyzed, and further assayed for hydroxyproline levels. The hydroxyproline levels in the lung tissues were assayed in terms of the level in the hydrolysate of the lung tissues as described in the method of Kivirikko et al (Anal. Biochem. 19, 249-255 (1967)). Pulmonary fibrosis levels (severity) were scored from 0 to 8, based on the method of Ashcort et al (J. Clin. Pathol. 41, 467-470, (1988)). Further, the control mice and test mice were assayed for plasma PAI-1 activity (ng/ml). The results of lung tissue analysis were shown in FIG. 15 (a represents fibrosis score and b is a set of histological stain images).
# plasma PAI-1 = biological target: T2, plasma PAI-1 (Mus musculus, UniProt P22777); test: Plasma PAI-1 activity in mice with bleomycin-induced pulmonary fibrosis; format: in vivo
# T2 construct: from tissue; host or cells: mouse plasma (C57BL/6, male)
# T2 sequence (P22777 23-402): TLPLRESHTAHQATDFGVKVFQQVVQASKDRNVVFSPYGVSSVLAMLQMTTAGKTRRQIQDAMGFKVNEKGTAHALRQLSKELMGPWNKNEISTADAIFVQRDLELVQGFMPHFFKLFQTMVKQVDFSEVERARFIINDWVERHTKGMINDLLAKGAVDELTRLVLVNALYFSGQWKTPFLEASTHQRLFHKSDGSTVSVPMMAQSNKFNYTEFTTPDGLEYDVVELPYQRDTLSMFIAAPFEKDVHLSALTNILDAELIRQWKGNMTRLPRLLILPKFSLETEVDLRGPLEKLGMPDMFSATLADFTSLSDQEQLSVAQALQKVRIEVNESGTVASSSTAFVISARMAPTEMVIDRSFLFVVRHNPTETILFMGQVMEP
# Method: as §1
# [4] = C57BL/6 mice, bleomycin, 200 mg/kg p.o. twice/day for 14 days in 0.5% CMC, n=10, mean±SE
# [5] = versus elevation by bleomycin, 200 mg/kg p.o. twice a day
Plasma PAI-1 Activity (plasma PAI-1; [4]),plasma PAI-1 activity (in words) (plasma PAI-1; [5]),Structure (SMILES),fibrinolysis (lysed area on the plate) (PAI-1 [1]),PAI-1 activity inhibitory action compared with tiplaxtinin (PAI-1 [2]),"Hydroxyproline Level in Lung Tissue [3, 4]","fibrosis score ([3]; scored from 0 to 8 (Ashcroft), bleomycin mice, 200 mg/kg p.o. twice a day for 14 days, FIG. 15)","hydroxyproline level in the lung tissues (in words) [3, 5]"
,,"CCC(CC(=O)Nc1scc(-c2ccccc2)c1C(=O)O)C(=O)Nc1scc(-c2ccccc2)c1C(=O)O (stereo not drawn) [compound a, 2-[3-(3′-Carboxy-4′-phenylthiophen-2′-ylcarbamoyl)-pentanoylamino]-4-phenylthiophen-3-carboxylic acid]",inhibit the fibrinolysis suppression caused by PAI-1,higher PAI-1 activity inhibitory action at concentrations of 35 μM and 50 μM than tiplaxtinin,,,
1.2 ± 0.1^b ng/ml,significantly decreases,"CCC(CC(=O)Nc1scc(-c2cccs2)c1C(=O)O)C(=O)Nc1scc(-c2cccs2)c1C(=O)O (stereo not drawn) [compound b, 2-[3-(3′-carboxy-4′-thienylthiophen-2′-ylcarbamoyl)-pentanoylamino]-4-thienylthiophen-3-carboxylic acid]",inhibit the fibrinolysis suppression caused by PAI-1,higher PAI-1 activity inhibitory action at concentrations of 35 μM and 50 μM than tiplaxtinin,204.2 ± 9.5^b μg/lung,2.9±0.42,significantly decreases
